Experimental data as given in PubChem BioAssay AID489027 (Sanford-Burnham Center for Chemical Genomics, 2010).
Calls of active or inactive are those of the source. How the calls were made is not given here.

Target: UPR counterscreen luciferase reporter, luminescence
Assay: activators in UPR counterscreen luciferase reporter, dose response, counter-screen for adaptive UPR activator project, cell-based, luminescence (AID 489027)

| SMILES | EC50 |
| --- | --- |
| CC1(C)C[C@H](O)[C@]2(CO)[C@H](O)C[C@]3(C)C(=CCC4[C@@]5(C)CC[C@H](O)C(C)(C)C5CC[C@]43C)[C@@H]2C1 (stereo not given in full) | > 80 µM (inactive) |
| CCC/C(=N/Nc1ccc(Cl)cc1)c1cnnc(-c2ccccc2)n1 | inactive |
| O=Cc1cc2ccccc2nc1SCc1ccc(Cl)cc1 | inactive |
| COc1cc(SC#N)ccc1N=Cc1c(C)[nH]n(-c2ccc(Cl)cc2)c1=O | 7.41 µM |
| O=C(Nc1ccc(O)c(-c2nc3ccccc3s2)c1)c1cc(=O)c2ccccc2o1 | > 80 µM (inactive) |
| CN(C)S(=O)(=O)c1ccc(N2CCCC2)c(C(=O)Nc2nccs2)c1 | inactive |
| CC1CCC(C(C)C)C(OC(=O)Cn2c(-c3ccc(Br)cc3)[n+](C)c3ccccc32)C1 (stereo not given) | 10.9 µM |
| CCOc1ccccc1N=Cc1c(O)c2ccccc2oc1=O | 8.11 µM |
| CCCn1c(Nc2nc3ccccc3n2C)nc2ccccc21 | inactive |
| CCOc1cc(/C=C(\C#N)c2[nH]nc(N)c2C#N)ccc1O | > 80 µM (inactive) |
| N/C(=N\c1nc(CSc2ccccn2)cc(=O)[nH]1)Nc1ccc(Cl)cc1Cl | > 80 µM (inactive) |
| COc1ccc(-c2nn(C)c(=O)c3ccccc23)cc1NC(=O)Cn1nc(C)c2ccccc2c1=O | > 80 µM (inactive) |
| C/C(=N/Nc1cc(-c2ccccc2)nc(-c2ccccc2)n1)c1ccc(O)cc1 | 15.4 µM |
| Cc1ccc(Nc2nc(-c3c(C)nc4ccccn34)cs2)cc1 | > 80 µM (inactive) |
| O=C(C[C@H]1C[C@H](C(=O)N2CCCCC2)[C@@]2(CCc3ccccc3)c3[nH]c4ccc(Cl)cc4c3CCN2C1=O)NCCC1=CCCCC1 | inactive |
| OCCNc1nc(Nc2ccc(Cl)c(Cl)c2)nc2ccccc12 | 10.8 µM |
| COc1cc(NC(=O)c2ccco2)c(C(=O)OCC(=O)c2c[nH]c3ccccc23)cc1OC | > 80 µM (inactive) |
| CC(C)=CCCC1(C)C=Cc2c(c(C)cc3c2[nH]c2cc(O)ccc23)O1 (stereo not given) | inactive |
| CCc1cccc(CC)c1NC(=O)/C(C#N)=C/c1ccccc1C(F)(F)F | > 80 µM (inactive) |
| Cc1ccc(CNC(=O)c2ccc3c(=O)n4c(-c5ccc(C)cc5)csc4nc3c2)cc1 | > 80 µM (inactive) |
| COc1cc(C(=O)Nc2cc(-c3nc4cc(C)ccc4o3)ccc2C)cc(OC)c1OC | inactive |
| C#CCn1c(=NC(=O)c2ccc(S(=O)(=O)N3CCc4ccccc4C3)cc2)sc2cc(S(N)(=O)=O)ccc21 | > 80 µM (inactive) |

| SMILES | EC50 |
| --- | --- |
| Cc1ccc(Nc2nc(NCc3ccco3)c3ccccc3n2)cc1 | > 80 µM (inactive) |
| COc1ccc2oc(-c3ccc(C)c(NC(=O)c4ccc(N5CCOCC5)c([N+](=O)[O-])c4)c3)nc2c1 | > 80 µM (inactive) |
| COc1cccc(C(=O)Oc2cc3c4c(c2)C(C)=CC(C)(C)N4C(=O)C3=O)c1 | 15.7 µM |
| CCc1nn(-c2cc(Oc3cccc4ccccc34)nc(-c3ccccc3)n2)c(N)c1C#N | > 80 µM (inactive) |
| CN(C)CCOc1ccc(-c2c(-c3ccccc3)sc3ccccc23)cc1 | 17 µM |
| COc1ccc(Nc2nc(N)c([N+](=O)[O-])c(NC3CCCCC3)n2)cc1 | > 80 µM (inactive) |
| O=C(C[C@@H]1C/C=C/CC[C@H](Cc2ccc(F)cc2)C(=O)OC[C@@H](Cc2ccccc2)NC1=O)N[C@H](CO)Cc1ccccc1 | 14.4 µM |
| Cc1cccc2cc(C(c3nnnn3Cc3ccccc3)N3CCCc4ccccc43)c(=O)[nH]c12 (stereo not given) | inactive |
| Cc1cc(NC(=O)c2cc(-c3ccccn3)nc3ccc(Br)cc23)no1 | > 80 µM (inactive) |
| Brc1ccc(C2=Nn3c(nnc3-c3n[nH]c4c3CCC4)SC2)cc1 | inactive |
| COC(=O)c1cc([N+](=O)[O-])c(-n2ccnc2)c([N+](=O)[O-])c1 | > 80 µM (inactive) |
| O=C(c1ccc2c(c1)[nH]c(=S)n1c3ccccc3nc21)N1CCN(c2cccc(Cl)c2)CC1 | 16.4 µM |
| O=CC1=C(c2ccccc2)Oc2ccccc2O1 | 10.3 µM |
| O=C(CC1C[C@H](C(=O)N2CCCCC2)[C@@]2(CCc3ccccc3)c3[nH]c4ccccc4c3CCN2C1=O)NCCC1=CCCCC1 (stereo not given in full) | inactive |
| O=C(COC(=O)/C=C/c1cn(-c2ccccc2)nc1-c1cccnc1)Nc1ccc(Cl)cc1Cl | 14.3 µM |
| Cc1ccc2nc(-c3ccc(NC(=S)NC4CC(C)(C)NC(C)(C)C4)cc3)sc2c1 | 9.04 µM |
| C#CCOCCOCCOCCNc1nc(N2CCN(C(=O)CCCCCCCCCCNC(=O)[C@H](CCCCN)n3cc(C[C@@H](C)CC)nn3)CC2)nc(N2CCN(C(=O)CCCCCCCCCCNC(=O)[C@H](CCCN=C(N)N)n3cc(C[C@@H](C)CC)nn3)CC2)n1 | > 80 µM (inactive) |
| Cc1ccc(NS(=O)(=O)c2cc([N+](=O)[O-])ccc2N/N=C/c2sc(N3CCOCC3)nc2-c2ccccc2)c(C)c1 | > 80 µM (inactive) |
| CCOC(=O)c1ccc(-c2ccc(/C=N/NC(=O)CN(c3cccc(C)c3)S(C)(=O)=O)o2)cc1 | 15.5 µM |
| O=C(N/N=C/c1ccccc1Cl)c1[nH]c2ccc(Br)cc2c1-c1ccccc1 | inactive |
| O=C(Nc1ccc(Cl)cc1)Nc1ccccc1Sc1ncc([N+](=O)[O-])s1 | inactive |
| COc1cc(/C=N/NC(N)=O)c(Br)cc1OCC(=O)Nc1ccccc1C | inactive |

| SMILES | EC50 |
| --- | --- |
| CCOC(=O)c1cc(-c2ccccc2)sc1NC(=O)c1ccc(OC)cc1 | inactive |
| Cc1cc(C)cc(NC(=O)/C(C#N)=C/c2cn(CC(=O)NCc3ccco3)c3ccccc23)c1 | 7.27 µM |
| C=CCN1C(=O)/C(=C2/Sc3ccc(OC)cc3N2C)SC1=Nc1cccc(O)c1 | > 80 µM (inactive) |
| COc1cc(/C=C2/C(=N)N3C=CSC3=NC2=O)ccc1OCCCOc1cc(C)ccc1C | > 80 µM (inactive) |
| COc1ccccc1-c1sc2cc3c(cc2c1-c1ccc(OCCN2CCCCC2)cc1)OCO3 | 17.7 µM |
| CCC(=O)Nc1ccc(-c2cc(-c3ccccc3)nc(-c3ccc(NC(=O)CC)cc3)n2)cc1 | > 80 µM (inactive) |
| CN1Cc2c(N3CCOCC3)nc3sc(C(=O)c4ccc(Br)cc4)c(N)c3c2CC1(C)C | 18.7 µM |
| C/C(=N/NC(=O)c1ccc(C)s1)c1cccc(NC(=O)COc2ccc(Cl)cc2C)c1 | 20 µM |
| CN(C)CCCn1cnc2c(c1=N)C(c1ccccc1)c1ccc3ccccc3c1O2 (stereo not given) | 7.75 µM |
| O=c1[nH]c(O)c(/C=C2/C=CC(c3cc(Cl)ccc3Cl)=N2)c(=O)[nH]1 | 6.12 µM |
| COc1ccc(Cc2nnc(N/N=C/c3ccc(N(C)C)cc3)[nH]c2=O)cc1OC | > 80 µM (inactive) |
| CCOC(=O)C1=C(C)N=c2s/c(=C3/C(=O)Nc4ccccc43)c(=O)n2C1c1ccc(C)cc1 (stereo not given) | > 80 µM (inactive) |
| Cc1ccc(-c2cc(C(F)F)n3ncc(C(=O)N4CCc5ccccc54)c3n2)cc1 | > 80 µM (inactive) |
| Cc1nc(Nc2nc(-c3ccccc3)cc(=O)[nH]2)nc2ccccc12 | > 80 µM (inactive) |
| CC1CCCCC1N1CN=C(Nc2nc3ccccc3s2)NC1 (stereo not given) | > 80 µM (inactive) |
| COc1ccc(-c2cc(-c3ccccc3)c(C#N)c(S(C)(=O)=O)n2)cc1 | 5.05 µM |
| CCOc1cc2c3c(c1)C(C)=CC(C)(C)N3C(=O)C2=O | inactive |
| NS(=O)(=O)c1ccc(N=Cc2c(O)n(C3CCCCC3)c(=O)n(C3CCCCC3)c2=O)cc1 | 14.6 µM |
| Cc1nc2cc(NC(=O)CSc3nc4c(C)cccc4cc3C#N)ccc2s1 | > 80 µM (inactive) |
| Cc1c(O)cc2c(c1O)C(=O)CC(c1ccccc1)O2 (stereo not given) | 10.9 µM |
| COc1ccc(/C=c2\s/c(=C(/C#N)C(=O)NCc3ccco3)n(-c3ccccc3)c2=O)cc1 | inactive |
